Results: US9518089B2, “Metallothionein-derived peptide fragments” (University of Tasmania, priority 2006, dated 2016)

Legend:
MT2 protein (from Sigma) = assay: Surface plasmon resonance (SPR) analysis of peptide binding to immobilized MT2; settings: for Kd / ka / kd: 25° C., PBS pH 7.4, immobilized MT2; for binding to MT2 protein immobilized on a sensor chip: difference to blank chip
Protocol: FIG. 12 Binding of the MTAcc peptide to MT studied by means of SPR analysis. Approximately 2000 resonance units (RU) of the MT2 protein (Sigma) were immobilized on the sensor chip. The binding is given as the response difference between the binding to the sensor chip with the immobilized MT2 and a blank sensor chip (unspecific binding). The peptide was injected into the sensor chip at a concentration of 0.87 μM. The experiment was repeated four times. FIG. 13 Binding of the MTBcc peptide to MT studied by means of SPR analysis. Approximately 2000 resonance units (RU) of the MT2 protein (Sigma) were immobilized on the sensor chip. The binding is given as the response difference between the binding to the sensor chip with the immobilized MT2 and a blank sensor chip (unspecific binding). The peptide was injected into the sensor chip at a concentration of 8.32 μM. The experiment was repeated four times. FIG. 14 Binding of the MTAn peptide to MT studied by means of SPR analysis. Approximately 2000 resonance units (RU) of the MT2 protein (Sigma) were immobilized on the sensor chip. The binding is given as the response difference between the binding to the sensor chip with the immobilized MT2 and a blank sensor chip (unspecific binding). The peptide was injected into the sensor chip at a concentration of 1.7 μM. Analysis of binding was performed employing a BIAcoreX instrument (Biosensor AB, Uppsala, Sweden) at 25° C. using 10 mM pH 7.4 sodium phosphate containing 150 mM NaCl as running buffer (phosphate-buffered saline, PBS). The flow-rate was 5 μl/min. Data were analysed by non-linear curve-fitting using the manufacturer's software. The MT2 protein (from Sigma) was immobilized on a sensor chip CM5 using an amine coupling kit (Biosensor AB) as follows: the chip was activated by 20 μl activation solution; the protein was immobilized using 12 μl 20 μg/ml protein in 10 mM sodium phosphate buffer pH 6.0; the chip was blocked by 35 μl blocking solution. Various peptides at the indicated concentrations were injected into the sensor chip. The curve corresponding to the difference between binding to MT2 and a blank chip was used for analysis.

[1] = test system: cerebellar granule neurons (CGN); assay: Cell survival assay, low-potassium induced apoptosis of CGN; format: cell-based, rat; settings: apoptosis induced by 5 mM KCl medium, 48 h; FIGS. 6-9
Protocol: Primary CGN cultures from seven days old rats were plated at a density of 100,000 cells/cm^2 in eight-well permanox chamber slides coated with poly-D-Lysine and grown in a medium supplemented with 40 mM KCl. After 24 hours cytosine-β-D-arabinofuranoside was added to the culture to inhibit proliferation of non-neuronal cells. Neurons were left to differentiate for further 6 days in vitro, before apoptosis was induced by shifting cells into a starving medium containing either 5 mM KCl alone (negative control), 40 mM KCl (positive control) or 5 mM KCl plus various concentrations of peptide. 48 hours after apoptosis induction cells were fixated and stained with Hoechst 33258. Neuronal viability was estimated by comparing the amount of live neurons with the total number of neurons based on nuclear morphology. Results (see FIGS. 6-9) from at least four independent experiments are expressed as percentage survival±SEM, with the negative control set at 100%. Statistics are performed with a Student's paired t-test. *=p<0.05, **=p<0.01, ***=p<0.001. CGN from 7-day-old rats were induced to differentiate for 7 days in a medium with a high potassium concentration after which the neurons were grown for two days in a low potassium medium either in the absence or presence of IGF-1 (positive control), or the MT-derived peptides.

[2] = test system: cerebellar granule neurons (CGN); assay: Neuronal differentiation (neurite outgrowth) in primary CGN cultures; format: cell-based, rat; settings: CGN grown 24 h in presence of peptide; FIGS. 1-5
Protocol: Primary cultures of cerebellar granule neurons (CGN) from seven days old rats were plated at a density of 10,000 cells/cm^2 in eight-well permanox chamber slides and left to differentiate for 24 hours in the presence of various concentrations of peptide. Cells were fixated and immuno-stained for GAP-43 to visualise only neurons. CGN cultures were fixed in 4% paraformaldehyde followed by blocking with 1% BSA and then incubateded with polyclonal rabbit antibodies against rat GAP-43 (Chemicon, AH Diagnostics, Aarhus, Denmark) (1:1000 dilution with 1% BSA) followed by incubation with secondary Alexa Fluor® 488 goat anti-rabbit antibodies (Molecular Probes, Eugene, Oreg., USA) (1:700 dilution with 1% BSA. Neurite length was estimated by means of a stereological approach (Rønn et al., 2000). Results are expressed as percentage neurite outgrowth±SEM, with the untreated controls set at 100%. Statistics are performed with a Student's paired t-test. *=p<0.05, **=p<0.01, ***=p<0.001. If not specifically indicated, four experiments were performed for each condition. 2.

[3] = test system: cerebellar granule neurons (CGN); assay: TUNEL assay (DNA fragmentation) in CGN; format: cell-based, rat; settings: 24 h after apoptosis induction; FIG. 10
Protocol: Primary cultures of seven days old rats were plated, cultured and induced to under-go apoptosis as described above for neuronal survival, however cells were fixated 24 hour after apoptosis induction. By using the Fluorescien FragEL DNA fragmentation Kit, which label free DNA ends with a green fluorescent colour, the amount of neurons undergoing DNA fragmentation can be estimated and compared to the total amount of cells, which are stained with propidium idodide. Results (see FIG. 10) from at least four independent experiments are expressed as percentage TUNEL positive cells±SEM, with the negative control set at 100%. Statistics are performed with a Student's paired t-test. *=p<0.05, **=p<0.01, ***=p<0.001.

[4] = test system: focal brain injury on the right fronto-parietal cortex; assay: Neuronal rescue and tissue repair in vivo after focal brain injury (dry-ice lesion); set-up: species or system rat; settings: rats, tetrameric form of peptide s.c. 10 mg/kg/injection, FIG. 11
Protocol: A focal brain injury on the right fronto-parietal cortex was made by applying a piece of dry-ice (−78° C.) directly onto the skull for 30 seconds in mice and 60 seconds in rats, as previously described in detail (Penkowa and Moos, 1995). The rats were treated s.c. with the tetrameric form of the MTAcc peptide ([…]) one day before lesion and one and two days after the lesion (10 mg/kg bodyweight/injection). Three days after the lesion animals were fixed by transcardial perfusion with paraformaldehyde. Histochemistry and immunohistochemistry (IHC) were performed on sections cut from organs taken from fixated animals. For immunohistochemical investigation, brains were dissected and postfixed in Zamboni's fixative for 2-3 hours, dehydraded in graded alcohol followed by xylol and subsequently embedded in paraffin before being cut in 3 μm frontal sections throughout the entire area of the lesion. Terminal deoxynucleotidyl transferase (TdT)-mediated deoxyuridine triphosphate (dUTP)-biotin nick end labeling (TUNEL) was performed using the Fragment End Labeling (FragEL™) Detection Kit (Calbiochem, USA, code QIA33). The FragEL kit contains all the materials used below and each step was performed according to the manufacturer's recommendations. Sections were also immunostained for markers of oxidative stress such as peroxynitrite-induced nitration of tyrosine residues (NITT) and malondialdehyde (MDA) andfor markers of inflammation such as interleukin (IL)-1, IL-12 and tumor necrosis factor (TNF) α, as described by Penkowa et al. (2000).

| Substance | ka (MT2 protein (from Sigma)) | kd (MT2 protein (from Sigma)) | binding to MT2 protein immobilized on a sensor chip (MT2 protein (from Sigma)) | neuronal survival of CGN [1] | neurite outgrowth / differentiation of cerebellar primary neurons [2] | also measured |
| --- | --- | --- | --- | --- | --- | --- |
| KKSSCSCSPVGSAK [MTAn] | 1.57 ± 0.05 × 10^4 M^−1 s^−1 | 5.74 ± 0.19 × 10^−3 s^−1 | specifically bind |  |  | Kd (MT2 protein (from Sigma)): 367 nM |
| IGF-1: positive control in the CGN survival assay [reference compound] |  |  |  | could be prevented |  |  |
| KGGEAAEAEAEK (listed as Homo sapiens) [MT31p] |  |  |  | promoted survival of CGN in a dose dependent manner | no neuritogenic activity |  |
| MDPNCSCAAGDSST (listed as Homo sapiens) [MTBnc] |  |  |  | promoted survival of CGN in a dose dependent manner | stimulated differentiation of cerebellar primary neurons |  |
| SAGSCKCKESKSTS [MTBcc] | 2.83 ± 0.93 × 10^3 M^−1 s^−1 | 5.01 ± 1.75 × 10^−4 s^−1 | specifically bind | promoted survival of CGN in a dose dependent manner | stimulated differentiation of cerebellar primary neurons | number of apoptotic neurons (TUNEL positive cells, DNA fragmentation) [3]: strongly reduced the number of apoptotic neurons |
| MDPNSSSAAGDSST (listed as Homo sapiens) [MTBn] |  |  |  | promoted survival of CGN in a dose dependent manner | no neuritogenic activity |  |
| AQGSISKGASDKSS (listed as Homo sapiens) [MTAc] |  |  |  | promoted survival of CGN in a dose dependent manner | stimulated differentiation of cerebellar primary neurons |  |
| SAGSSKSKESKSTS (listed as Homo sapiens) [MTBc] |  |  |  | promoted survival of CGN in a dose dependent manner | stimulated differentiation of cerebellar primary neurons |  |
| AQGSICKGASDKSS [MTAcc, tetrameric form used in vivo] | 4.54 ± 0.21 × 10^3 M^−1 s^−1 | 4.00 ± 0.27 × 10^−4 s^−1 | specifically bind | promoted survival of CGN in a dose dependent manner | stimulated differentiation of cerebellar primary neurons | number of apoptotic neurons (TUNEL positive cells, DNA fragmentation) [3]: strongly reduced the number of apoptotic neurons; number of apoptotic cells (TUNEL staining) ([4]; day -1, +1, +2, analysed 3 days after lesion): dramatic decrease of the number of apoptotic cell; inflammatory response to the lesion (IL-1, IL-12 and TNFα immunostaining) ([4]; 3 days after lesion): inhibition of the inflammatory response to the lesion; oxidative stress (NITT and MDA immunostaining) ([4]; 3 days after lesion): inhibition of oxidative stress; Kd (MT2 protein (from Sigma)): 89.5 nM |
